These results are taken from ChEMBL document CHEMBL4043296 (J Med Chem, 2018).

SMILES strings stand for the structures.

Series [1] has as its target T1, Muscarinic acetylcholine receptor M1 (Homo sapiens) (UniProt P11229).
T1 sequence (whole entry): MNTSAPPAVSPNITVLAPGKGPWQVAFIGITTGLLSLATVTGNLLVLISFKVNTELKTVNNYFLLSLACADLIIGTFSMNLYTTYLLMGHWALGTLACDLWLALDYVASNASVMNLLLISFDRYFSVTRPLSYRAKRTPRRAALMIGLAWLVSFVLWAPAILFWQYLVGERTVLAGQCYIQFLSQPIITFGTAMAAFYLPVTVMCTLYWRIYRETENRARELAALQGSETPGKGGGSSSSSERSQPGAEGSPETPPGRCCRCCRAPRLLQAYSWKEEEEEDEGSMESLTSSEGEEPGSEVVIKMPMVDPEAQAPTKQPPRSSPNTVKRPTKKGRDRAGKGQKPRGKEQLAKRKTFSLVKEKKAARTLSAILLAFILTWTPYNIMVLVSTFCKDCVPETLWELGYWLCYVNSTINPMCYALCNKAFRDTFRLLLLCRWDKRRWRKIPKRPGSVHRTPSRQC
The series is described as follows: Agonist activity at human SP/Myc epitope-tagged muscarinic M1 receptor expressed in HEK293T cells assessed as RLuc8-fused Galphaq activation after 2 mins by BRET assay relative to carbachol. The class given is cell-based. Conditions: HEK-293T.

Series [2] concerns the target D(2) dopamine receptor (Homo sapiens, UniProt P14416). The series can be described thus: Displacement of [3H]N-methylspiperone from human dopamine D2 receptor expressed in HEK293 cell membranes after 1 hr by scintillation counting method.
In series [3] the target is T2, Alpha-1A adrenergic receptor (Homo sapiens, UniProt P35348).
T2 sequence (P35348 whole entry): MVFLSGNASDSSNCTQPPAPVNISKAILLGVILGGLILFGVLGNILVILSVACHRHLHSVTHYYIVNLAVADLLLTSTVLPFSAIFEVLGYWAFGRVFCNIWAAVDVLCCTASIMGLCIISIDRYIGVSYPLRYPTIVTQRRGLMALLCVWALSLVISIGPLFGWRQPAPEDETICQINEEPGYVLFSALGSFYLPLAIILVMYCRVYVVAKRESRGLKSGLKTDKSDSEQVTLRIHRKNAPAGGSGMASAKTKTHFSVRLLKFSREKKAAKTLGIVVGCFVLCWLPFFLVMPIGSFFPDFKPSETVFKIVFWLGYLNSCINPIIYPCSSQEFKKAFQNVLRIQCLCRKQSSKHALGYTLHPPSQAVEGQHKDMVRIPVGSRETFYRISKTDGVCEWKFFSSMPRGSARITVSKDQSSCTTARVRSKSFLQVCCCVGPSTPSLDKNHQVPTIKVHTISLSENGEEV
The series is described as follows: Displacement of [3H]prazosin from human recombinant alpha-1A adrenergic receptor expressed in CHO cell membranes after 30 mins by liquid scintillation counting method.

The target of series [4] is T3, Muscarinic acetylcholine receptor M4 (Homo sapiens) (UniProt P08173).
T3 sequence (whole entry): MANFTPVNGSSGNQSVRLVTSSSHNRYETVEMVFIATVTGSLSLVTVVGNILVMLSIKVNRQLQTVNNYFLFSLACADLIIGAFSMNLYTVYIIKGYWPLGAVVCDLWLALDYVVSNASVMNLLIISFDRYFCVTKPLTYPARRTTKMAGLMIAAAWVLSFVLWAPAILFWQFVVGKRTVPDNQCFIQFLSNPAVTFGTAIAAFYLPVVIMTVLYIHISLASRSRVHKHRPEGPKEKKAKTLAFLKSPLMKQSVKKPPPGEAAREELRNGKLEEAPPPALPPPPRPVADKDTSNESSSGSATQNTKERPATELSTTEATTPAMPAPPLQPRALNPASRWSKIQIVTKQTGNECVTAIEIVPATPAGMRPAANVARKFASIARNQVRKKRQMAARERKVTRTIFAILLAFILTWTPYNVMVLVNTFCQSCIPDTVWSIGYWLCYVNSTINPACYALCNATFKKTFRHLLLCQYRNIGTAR
The series can be described thus: Agonist activity at human SP/Myc epitope-tagged muscarinic M4 receptor expressed in HEK293T cells assessed as RLuc8-fused Galphaq activation after 2 mins by BRET assay relative to carbachol. The settings on record: HEK-293T. The class given is cell-based. On the technique in general: In BRET a luciferase serves as donor, and the signal depends on an acceptor being close.

Series [5] concerns the target Beta-1 adrenergic receptor (Homo sapiens, UniProt P08588). The series can be described thus: Displacement of [3H]CGP12177 from human recombinant beta1 adrenergic receptor expressed in HEK293 cell membranes after 90 mins by beta counting method.
In series [6] the target is T4, Muscarinic acetylcholine receptor M5 (Homo sapiens, UniProt P08912).
T4 sequence (P08912 whole entry): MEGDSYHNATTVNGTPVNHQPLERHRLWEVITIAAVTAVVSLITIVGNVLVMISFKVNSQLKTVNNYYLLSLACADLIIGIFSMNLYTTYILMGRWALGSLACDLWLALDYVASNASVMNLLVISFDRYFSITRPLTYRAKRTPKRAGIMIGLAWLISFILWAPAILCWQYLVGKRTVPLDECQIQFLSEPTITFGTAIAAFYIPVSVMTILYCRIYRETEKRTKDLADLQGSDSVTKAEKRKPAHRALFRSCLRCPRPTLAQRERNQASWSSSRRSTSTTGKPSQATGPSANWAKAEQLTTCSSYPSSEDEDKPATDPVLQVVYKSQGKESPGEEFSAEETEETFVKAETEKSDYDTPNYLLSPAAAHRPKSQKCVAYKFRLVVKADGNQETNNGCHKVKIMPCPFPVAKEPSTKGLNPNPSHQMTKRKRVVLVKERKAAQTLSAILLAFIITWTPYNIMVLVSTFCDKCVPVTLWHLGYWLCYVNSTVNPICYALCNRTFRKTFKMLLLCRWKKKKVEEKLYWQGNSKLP
The series is described as follows: Displacement of [3H]NMS from human muscarinic M5 receptor expressed in CHO cell membranes after 2 hrs by liquid scintillation counting method. On the technique in general: In a radioligand displacement assay an active substance lowers the binding of a labelled ligand.

Series [7] deals with T5, Muscarinic acetylcholine receptor M4 (Homo sapiens, UniProt P08173).
T5 sequence (P08173 whole entry): T3 sequence (whole entry)
The series can be described thus: Displacement of [3H]NMS from human muscarinic M4 receptor expressed in CHO cell membranes after 2 hrs by liquid scintillation counting method.

A short description of series [8]: Fraction unbound in human plasma at 0.5 uM by equilibrium dialysis method. It counts as ADME, cell-free. Background: In equilibrium dialysis free small molecules cross a membrane that holds back macromolecules.
Series [9] deals with T5, Muscarinic acetylcholine receptor M4. The series can be described thus: Agonist activity at human SP/Myc epitope-tagged muscarinic M4 receptor expressed in HEK293T cells assessed as RLuc8-fused Galphaq activation after 2 mins by BRET assay. The class given is cell-based, HEK-293T.

D(2) dopamine receptor, sequence (P14416 whole entry): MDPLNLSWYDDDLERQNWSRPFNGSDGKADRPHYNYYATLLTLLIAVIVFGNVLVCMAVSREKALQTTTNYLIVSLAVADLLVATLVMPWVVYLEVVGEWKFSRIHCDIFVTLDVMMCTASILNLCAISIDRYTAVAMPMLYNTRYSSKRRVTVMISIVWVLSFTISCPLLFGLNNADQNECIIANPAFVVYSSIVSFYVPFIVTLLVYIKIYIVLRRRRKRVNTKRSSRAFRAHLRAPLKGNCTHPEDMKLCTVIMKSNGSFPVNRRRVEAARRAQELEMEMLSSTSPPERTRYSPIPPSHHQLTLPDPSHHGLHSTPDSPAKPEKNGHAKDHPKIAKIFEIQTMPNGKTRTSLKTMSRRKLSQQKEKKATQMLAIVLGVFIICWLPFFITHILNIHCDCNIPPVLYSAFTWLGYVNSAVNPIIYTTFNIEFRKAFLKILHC
Beta-1 adrenergic receptor, sequence (P08588 whole entry): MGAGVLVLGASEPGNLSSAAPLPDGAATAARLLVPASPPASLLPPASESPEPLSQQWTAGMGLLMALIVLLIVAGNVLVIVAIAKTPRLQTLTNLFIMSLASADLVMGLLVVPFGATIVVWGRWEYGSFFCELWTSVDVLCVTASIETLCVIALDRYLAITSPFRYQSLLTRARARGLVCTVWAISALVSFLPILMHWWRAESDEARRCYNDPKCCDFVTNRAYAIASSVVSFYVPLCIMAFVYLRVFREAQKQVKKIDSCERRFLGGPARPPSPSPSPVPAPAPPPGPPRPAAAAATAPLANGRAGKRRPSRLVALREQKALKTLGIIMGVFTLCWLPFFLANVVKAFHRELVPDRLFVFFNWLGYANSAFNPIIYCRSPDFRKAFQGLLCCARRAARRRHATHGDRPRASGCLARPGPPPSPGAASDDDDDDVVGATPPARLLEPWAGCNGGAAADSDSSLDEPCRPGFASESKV

In the case of `O=C1CCc2ccccc2N1CCCN1CCC(Cc2ccccc2)CC1`, the Emax in series [1] is 25%; in series [4], 24%. Also, the Ki in [2] was 912 nM; in series [3], 257 nM; in series [5], 10200 nM; in series [6] it was 3720 nM; in series [7], 724 nM. In addition, the fraction unbound at 0.5 µM in series [8] worked out at 0.057. The concentration giving a half-maximal response (EC50) in [9] is 148 nM.
For `O=C1CCc2ccccc2N1CCCN1CCN(c2ccccc2)CC1`, the results for the maximal effect (Emax) in [1] and in [4] were 42% and 17%, respectively. The Ki in [2] is 1100 nM; in series [3], 53.7 nM; in series [5], 32400 nM; in series [6], 27500 nM; in [7] it was 9330 nM. Besides, in series [8], the fraction unbound at 0.5 µM is 0.033. In addition, in [9], the EC50 is 589 nM.

As usually defined, the Emax is the maximal effect, on the per cent scale that the assay sets. The term Ki denotes a dissociation constant, usually derived from enzyme kinetics or from competition with a known ligand. As a reminder, the fraction unbound is free concentration divided by total concentration. In general, EC50 refers to the midpoint of the concentration-response curve.
